From patent US10179789B2, “Methylenedioxybenzo [I] phenanthridine derivatives used to treat cancer” (Rutgers, The State University of New Jersey, priority 2009, dated 2019)

Key:
[1] = tested on: KBH5.0 (variant that overexpresses BCRP); test: Cytotoxicity on KBH5.0 (overexpresses BCRP); assay type: cell-based
Protocol: (§1) The cytotoxicity was determined using the MTT-microtiter plate tetrazolinium cytotoxicity assay (MTA). The human lymphoblast RPMI 8402 and its camptothecin-resistant variant cell line, CPT-K5 was provided by Dr. Toshiwo Andoh (Aichi Cancer Center Research Institute, Nagoya, Japan). (36) The P388 mouse leukemia cell line and its CPT-resistant TOP1-deficient variant P388/CPT45 (37) were obtained from Michael R. Mattern and Randal K. Johnson (GlaxoSmithKline, King of Prussia, Pa.). The KB3-1 cell line and its multidrug-resistant variant KBV-1 (38) were obtained from K. V. Chin (The Cancer Institute of New Jersey, New Brunswick, N.J.). The KBH5.0 cell line as noted previously (21) was derived from KB3-1 by stepwise selection against Hoechst 33342. The cytotoxicity assay was performed using 96-well microtiter plates. Cells were grown in suspension at 37° C. in 5% CO2 and maintained by regular passage in RPMI medium supplemented with 10% heat inactivated fetal bovine serum, L-glutamine (2 mM), penicillin (100 U/mL), and Streptomycin (0.1 mg/mL). For determination of IC50, cells were exposed continuously for FOUR days to varying concentrations of drug, and MTT assays were performed at the end of the fourth day. […] All assays were performed at least twice in six replicate wells.
(§2) The cytotoxicity of the representative compounds of the invention were also tested on cell line KB3-1 (parent cell line), KBV-1 (a variant that overexpresses efflux transporter MDR1) and KBH5.0 (a variant that overexpresses BCRP). Differences in the relative cytotoxicity between the parent and variant cell lines may be indicative of a compound that is a substrate for an efflux transporter. […] Accordingly, compounds of the invention of formula I may be useful to treat tumors that are resistant to other anticancer agents, especially anticancer agents that are susceptible to efflux by BCRP (e.g. anthracyclines, mitoxantrone, topotecan, irinotecan, bisanthrone, doxorubicin, daunorubicin, and epirubin.

[2] = tested on: CPT-K5 (camptothecin-resistant variant of RPMI 8402); test: Test B. MTT cytotoxicity assay, CPT-K5; assay type: cell-based, human
Protocol: (§3) Test B. Cytotoxic Assays (Cancer Cell Lines and Efflux Transporter Cell Lines)
as §1

[3] = tested on: P388/CPT45 (CPT-resistant TOP1-deficient variant of P388); test: Test B. MTT cytotoxicity assay, P388/CPT45; assay type: cell-based, mouse
Protocol: as §3, §1

[4] = tested on: P388 mouse leukemia cell line; test: Test B. MTT cytotoxicity assay, P388; assay type: cell-based
Protocol: as §3, §1

KB3-1 cell line = test: Cytotoxicity on KB3-1 (parent cell line); assay type: cell-based
Protocol: as §1, §2

[5] = tested on: RPMI 8402 human lymphoblast cells; test: Test B. MTT cytotoxicity assay, RPMI8402; assay type: cell-based
Protocol: as §3, §1

[6] = tested on: KBV-1 (variant that overexpresses efflux transporter MDR1); test: Cytotoxicity on KBV-1 (overexpresses MDR1); assay type: cell-based
Protocol: as §1, §2

human topoisomerase I = target: T1, human topoisomerase I (Homo sapiens, UniProt P11387); test: Test A. Topoisomerase I-mediated DNA cleavage assay; assay type: biochemical; settings: Relative Effective Concentration; relative to camptothecin arbitrarily assumed as 0.2; same 10% cleavage on plasmid DNA
T1 construct: unnamed fusion partner (recombinant fusion protein, T7 expression system); made in house; host or cells: Escherichia coli
T1 sequence (P11387 1-765): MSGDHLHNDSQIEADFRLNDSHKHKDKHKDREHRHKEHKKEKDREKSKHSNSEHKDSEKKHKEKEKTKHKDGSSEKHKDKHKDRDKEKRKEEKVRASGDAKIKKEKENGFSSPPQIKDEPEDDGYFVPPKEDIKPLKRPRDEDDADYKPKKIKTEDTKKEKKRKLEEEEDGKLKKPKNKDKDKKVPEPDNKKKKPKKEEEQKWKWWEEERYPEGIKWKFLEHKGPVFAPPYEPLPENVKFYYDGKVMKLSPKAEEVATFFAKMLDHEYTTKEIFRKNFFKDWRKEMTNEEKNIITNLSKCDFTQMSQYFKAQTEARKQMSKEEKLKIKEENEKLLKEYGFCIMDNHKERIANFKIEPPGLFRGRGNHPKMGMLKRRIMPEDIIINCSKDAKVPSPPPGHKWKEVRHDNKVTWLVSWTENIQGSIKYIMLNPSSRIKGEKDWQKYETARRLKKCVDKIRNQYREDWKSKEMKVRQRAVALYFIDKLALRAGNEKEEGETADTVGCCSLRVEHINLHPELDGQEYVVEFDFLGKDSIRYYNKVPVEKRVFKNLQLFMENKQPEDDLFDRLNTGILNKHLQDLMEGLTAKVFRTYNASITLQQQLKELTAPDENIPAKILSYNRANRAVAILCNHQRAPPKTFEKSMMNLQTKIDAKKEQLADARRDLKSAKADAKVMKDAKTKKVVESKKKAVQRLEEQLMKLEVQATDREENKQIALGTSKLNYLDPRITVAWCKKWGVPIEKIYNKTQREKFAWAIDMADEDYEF
Excerpt: Test A. Topoisomerase I—Mediated DNA Cleavage Assay Human topoisomerase I was expressed in Escherichia coli and isolated as a recombinant fusion protein using a T7 expression system as described previously (31). Plasmid YepG was also purified by the alkali lysis method followed by phenol deproteination and CsCl/ethidium isopycnic centrifugation method as described (32). The 3′ end labeling of the plasmid was accomplished by digestion with a restriction enzyme followed by end filling with Klenow polymerase as previously described (33). The cleavage assays were performed as previously reported (34,35). The drug and the DNA in presence of topoisomerase I was incubated for 30 min at room temperature. The reactions were terminated by the addition of 5 μL of 5% SDS and 1 mg/mL […] with an additional 1 h of incubation at 37° C. […] After development of the gels, typically 24-h exposure was used to obtain autoradiograms outlining the extent of DNA fragmentation. Topoisomerase I-mediated DNA cleavage values are reported as Relative Effective Concentration (REC). […] Results for the assay for representative compounds of the invention of formula I along with comparison compounds are shown in Table 1.

SMILES: COc1cc2c(C(=O)NCC(C)(C)N(Cc3ccccc3)Cc3ccccc3)cc3c4cc5c(cc4ncc3c2cc1OC)OCO5 [Compound 32, N-(2-(Dibenzylamino)-2-methylpropyl)-2,3-dimethoxy-8,9-methylene-dioxybenzo[i]phenanthridine-12-carboxamide]
- IC50 [1]: 600 nM
- IC50 [2]: 5000 nM
- IC50 [3]: 1300 nM
- IC50 [4]: 30 nM
- IC50 (KB3-1 cell line): 20 nM
- IC50 [5]: 60 nM
- IC50 [6]: 2900 nM
- TOP1 Mediated DNA Cleavage (REC Value) (human topoisomerase I): 1.5
